Laboratory results published in patent US12371428B2 (Exelixis, Inc., priority 2019, dated 2025).
Counter-ions that a name gives are not always drawn.

Columns and labels:
[1] = molecular target: Human MET (residues 956-1390) (Homo sapiens (Human), UniProt P08581); assay: Human Met kinase assay, HTRF KinEase (Example D-2); assay type: biochemical; settings: protocol of Example D-2 (other compounds); read-out: c-Met IC50
Method in brief: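 IC50 values come from a 4-parameter logistic fit of the […] fluorescence ratio, set between DMSO (100%) and reference compound at 1 μM (0%). Reactions held MET 956-1390 at 0.1 ng/well, ATP at Km, biotinylated peptide, 5 mM MgCl2, 1 mM MnCl2, 1 mM DTT and 3% DMSO, and ran 40 min at room temperature before streptavidin-XL665/Eu-antibody detection.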

[2] = molecular target: Mer (phospho-Mer, MERTK-transfected 293A cells) (Homo sapiens (Human), UniProt Q12866); assay: Mer autophosphorylation ELISA in transient transfected 293A cells (Example H); assay type: cell-based; settings: cellular activity; Mer autophosphorylation ELISA in transient transfected 293A cells
Method in brief: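 Inhibition of cellular Mer autophosphorylation is determined in 293A cells transiently expressing human MERTK after 1 h compound exposure (8 concentrations, serum-free, 0.3% DMSO). Phospho-Mer in clarified lysates is measured by ELISA, with DMSO and reference-inhibitor wells defining the 100% and 0% activity limits.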

[3] = molecular target: Met (phospho-Met, HGF-stimulated PC-3 prostate cancer cells) (Homo sapiens (Human), UniProt P08581); assay: Met autophosphorylation ELISA in PC-3 cells (Example F); assay type: cell-based; settings: cellular activity; Met autophosphorylation ELISA in PC-3 cells; read-out: c-Met IC50
Method in brief: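 Sandwich ELISA for phospho-Met (panTyr) in PC-3 lysates. Cells starved 3 h serum-free, compound 1 h (8-pt curve, 0.3% DMSO), HGF 100 ng/mL 10 min. 100% = HGF + DMSO; 0% = HGF + reference inhibitor. IC50 by 4-parameter fit.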

Chain of Met (phospho-Met, HGF-stimulated PC-3 prostate cancer cells) (P08581 25-1390): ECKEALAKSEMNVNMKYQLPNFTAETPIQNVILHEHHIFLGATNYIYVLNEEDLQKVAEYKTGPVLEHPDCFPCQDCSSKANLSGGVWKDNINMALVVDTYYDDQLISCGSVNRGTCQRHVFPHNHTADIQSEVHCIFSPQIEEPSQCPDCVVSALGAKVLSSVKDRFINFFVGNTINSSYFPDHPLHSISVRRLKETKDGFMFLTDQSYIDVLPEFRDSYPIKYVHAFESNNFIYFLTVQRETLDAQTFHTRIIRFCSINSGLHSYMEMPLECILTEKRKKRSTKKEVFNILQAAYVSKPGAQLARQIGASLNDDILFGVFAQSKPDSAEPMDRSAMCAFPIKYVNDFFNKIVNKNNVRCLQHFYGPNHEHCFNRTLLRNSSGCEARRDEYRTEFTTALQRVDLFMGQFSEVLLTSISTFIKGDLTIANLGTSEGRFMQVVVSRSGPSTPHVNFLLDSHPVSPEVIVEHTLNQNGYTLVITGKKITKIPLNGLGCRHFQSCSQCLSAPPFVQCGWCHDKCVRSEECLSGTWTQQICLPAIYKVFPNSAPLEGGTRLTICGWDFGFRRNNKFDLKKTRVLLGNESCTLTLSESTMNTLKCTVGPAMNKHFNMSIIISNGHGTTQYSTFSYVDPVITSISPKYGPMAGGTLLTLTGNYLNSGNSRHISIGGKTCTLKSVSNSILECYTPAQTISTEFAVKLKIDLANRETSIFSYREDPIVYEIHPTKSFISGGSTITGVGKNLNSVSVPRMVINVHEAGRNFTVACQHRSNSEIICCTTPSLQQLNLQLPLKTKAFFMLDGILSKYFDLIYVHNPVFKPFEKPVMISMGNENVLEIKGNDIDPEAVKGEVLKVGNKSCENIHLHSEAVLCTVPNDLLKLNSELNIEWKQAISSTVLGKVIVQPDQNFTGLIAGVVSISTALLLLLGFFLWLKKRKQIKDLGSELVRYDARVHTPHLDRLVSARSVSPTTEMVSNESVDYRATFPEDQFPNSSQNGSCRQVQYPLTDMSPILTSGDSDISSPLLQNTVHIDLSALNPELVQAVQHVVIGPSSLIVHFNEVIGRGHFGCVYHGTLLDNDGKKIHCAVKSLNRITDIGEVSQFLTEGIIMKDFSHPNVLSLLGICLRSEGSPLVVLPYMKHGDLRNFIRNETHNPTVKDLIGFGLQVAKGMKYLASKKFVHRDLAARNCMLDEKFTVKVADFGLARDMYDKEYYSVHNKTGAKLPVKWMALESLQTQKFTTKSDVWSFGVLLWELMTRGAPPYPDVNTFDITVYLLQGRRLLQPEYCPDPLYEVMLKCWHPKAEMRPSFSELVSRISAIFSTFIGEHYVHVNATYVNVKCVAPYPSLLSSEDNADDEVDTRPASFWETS
Chain of Mer (phospho-Mer, MERTK-transfected 293A cells) (Q12866 21-999): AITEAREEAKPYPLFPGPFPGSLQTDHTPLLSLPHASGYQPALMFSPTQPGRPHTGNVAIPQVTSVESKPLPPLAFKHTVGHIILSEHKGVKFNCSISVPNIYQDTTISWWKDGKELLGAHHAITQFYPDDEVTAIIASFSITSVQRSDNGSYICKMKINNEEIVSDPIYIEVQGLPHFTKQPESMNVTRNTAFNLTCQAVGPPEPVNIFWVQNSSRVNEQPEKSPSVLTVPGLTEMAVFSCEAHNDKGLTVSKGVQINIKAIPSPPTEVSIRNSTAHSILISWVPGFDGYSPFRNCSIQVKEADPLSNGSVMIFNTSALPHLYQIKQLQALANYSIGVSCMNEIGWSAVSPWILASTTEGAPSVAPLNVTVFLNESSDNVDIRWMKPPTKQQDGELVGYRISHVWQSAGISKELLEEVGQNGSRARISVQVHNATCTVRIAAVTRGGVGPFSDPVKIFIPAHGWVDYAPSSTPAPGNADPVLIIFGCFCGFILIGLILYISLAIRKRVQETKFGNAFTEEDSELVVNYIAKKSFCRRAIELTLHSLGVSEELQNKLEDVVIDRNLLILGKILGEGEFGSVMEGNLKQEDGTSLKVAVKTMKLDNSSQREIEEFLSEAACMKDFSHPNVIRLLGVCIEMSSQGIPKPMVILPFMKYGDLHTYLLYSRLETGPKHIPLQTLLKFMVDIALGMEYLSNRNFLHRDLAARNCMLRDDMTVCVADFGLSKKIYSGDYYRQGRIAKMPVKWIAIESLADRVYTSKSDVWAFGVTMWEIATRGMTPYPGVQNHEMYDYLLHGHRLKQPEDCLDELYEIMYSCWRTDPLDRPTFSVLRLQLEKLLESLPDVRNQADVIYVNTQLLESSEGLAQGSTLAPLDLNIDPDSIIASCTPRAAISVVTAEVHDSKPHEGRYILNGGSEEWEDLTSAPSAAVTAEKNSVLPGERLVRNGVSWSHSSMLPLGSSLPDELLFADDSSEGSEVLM
Chain of Human MET (residues 956-1390) (P08581 956-1390): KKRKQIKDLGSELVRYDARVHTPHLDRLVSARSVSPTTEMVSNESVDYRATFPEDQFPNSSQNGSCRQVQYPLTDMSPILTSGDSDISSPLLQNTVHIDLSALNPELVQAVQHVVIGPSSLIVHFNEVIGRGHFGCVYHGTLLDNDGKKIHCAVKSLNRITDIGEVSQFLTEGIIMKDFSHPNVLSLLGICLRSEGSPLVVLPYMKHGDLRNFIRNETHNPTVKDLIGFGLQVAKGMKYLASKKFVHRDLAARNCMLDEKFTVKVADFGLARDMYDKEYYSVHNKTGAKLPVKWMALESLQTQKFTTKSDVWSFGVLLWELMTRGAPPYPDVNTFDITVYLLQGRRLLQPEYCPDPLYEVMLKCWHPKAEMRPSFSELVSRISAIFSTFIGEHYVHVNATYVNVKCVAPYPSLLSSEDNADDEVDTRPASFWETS

SMILES | IC50 [1] [nM] | IC50 [2] [nM] | IC50 [3] [nM]
COc1cc2nccc(Oc3ccc(NC(=O)c4c(C)nc(C)c(-c5ccc(F)cc5C)c4O)cc3F)c2nc1OC [Compound 177, N-[4-[(6,7-Dimethoxy-1,5-naphthyridin-4-yl)oxy]-3-fluorophenyl]-5-(4-fluoro-2-methylphenyl)-4-hydroxy-2,6-dimethylpyridine-3-carboxamide] | < 100 | < 100 | < 100
COc1cnc2c(Oc3ccc(NC(=O)c4c(C)nc(C)c(-c5ccc(F)cc5C)c4O)cc3F)ccnc2c1 [Compound 178, N-[3-Fluoro-4-[(7-methoxy-1,5-naphthyridin-4-yl)oxy]phenyl]-5-(4-fluoro-2-methylphenyl)-4-hydroxy-2,6-dimethylpyridine-3-carboxamide] | < 100 | < 100 | < 100
CCc1nc(C)c(-c2ccc(F)cc2)c(O)c1C(=O)Nc1ccc(Oc2ccnc3cc(OC)c(OC)nc23)c(F)c1 [Compound 179, N-[4-[(6,7-Dimethoxy-1,5-naphthyridin-4-yl)oxy]-3-fluorophenyl]-2-ethyl-5-(4-fluorophenyl)-4-hydroxy-6-methylpyridine-3-carboxamide] | < 100 | < 100 | < 100
CCc1nc(C)c(-c2ccc(F)cc2)c(O)c1C(=O)Nc1ccc(Oc2ccnc3cc(OC)cnc23)c(F)c1 [Compound 180, 2-Ethyl-N-[3-fluoro-4-[(7-methoxy-1,5-naphthyridin-4-yl)oxy]phenyl]-5-(4-fluorophenyl)-4-hydroxy-6-methylpyridine-3-carboxamide] | < 100 | < 100 | < 100
COc1cnc2c(Oc3ccc(NC(=O)c4cn(C)c(C)c(-c5ccc(F)cc5C)c4=O)cc3F)ccnc2c1 [Compound 181, N-[3-Fluoro-4-[(7-methoxy-1,5-naphthyridin-4-yl)oxy]phenyl]-5-(4-fluoro-2-methylphenyl)-1,6-dimethyl-4-oxopyridine-3-carboxamide] | < 100 | < 100 | < 100
CCc1nc(C)c(-c2ccc(F)cc2)c(O)c1C(=O)Nc1ccc(Oc2ccnc3ccc(OC)nc23)c(F)c1 [Compound 182, 2-Ethyl-N-[3-fluoro-4-[(6-methoxy-1,5-naphthyridin-4-yl)oxy]phenyl]-5-(4-fluorophenyl)-4-hydroxy-6-methylpyridine-3-carboxamide] | < 100 | < 100 | < 100
COc1ccc2nccc(Oc3ccc(NC(=O)c4cn(C)c(C)c(-c5ccc(F)cc5C)c4=O)cc3F)c2n1 [Compound 183, N-[3-Fluoro-4-[(6-methoxy-1,5-naphthyridin-4-yl)oxy]phenyl]-5-(4-fluoro-2-methylphenyl)-1,6-dimethyl-4-oxopyridine-3-carboxamide] | < 100 | < 100 | 100 to 300
COCc1nc(C)c(-c2ccc(F)cc2)c(O)c1C(=O)Nc1ccc(Oc2ccnc3cc(OC)c(OC)nc23)c(F)c1 [Compound 184, N-[4-[(6,7-Dimethoxy-1,5-naphthyridin-4-yl)oxy]-3-fluorophenyl]-5-(4-fluorophenyl)-4-hydroxy-2-(methoxymethyl)-6-methylpyridine-3-carboxamide] | < 100 | < 100 | < 100
COCc1nc(C)c(-c2ccc(F)cc2)c(O)c1C(=O)Nc1ccc(Oc2ccnc3cc(OC)cnc23)cc1 [Compound 185, 5-(4-Fluorophenyl)-4-hydroxy-2-(methoxymethyl)-N-[4-[(7-methoxy-1,5-naphthyridin-4-yl)oxy]phenyl]-6-methylpyridine-3-carboxamide] | < 100 | < 100 | < 100
COCc1nc(C)c(-c2ccc(F)cc2)c(O)c1C(=O)Nc1ccc(Oc2ccnc3cc(OC)cnc23)c(F)c1 [Compound 186, N-[3-Fluoro-4-[(7-methoxy-1,5-naphthyridin-4-yl)oxy]phenyl]-5-(4-fluorophenyl)-4-hydroxy-2-(methoxymethyl)-6-methylpyridine-3-carboxamide] | < 100 | < 100 | < 100
CCc1nc(C)c(-c2ccc(F)cc2)c(O)c1C(=O)Nc1ccc(Oc2ccnc3cc(OC)cnc23)cc1 [Compound 188, 2-Ethyl-5-(4-fluorophenyl)-4-hydroxy-N-[4-[(7-methoxy-1,5-naphthyridin-4-yl)oxy]phenyl]-6-methylpyridine-3-carboxamide] | < 100 | < 100 | < 100
COCc1nc(C)c(-c2ccc(F)cc2)c(O)c1C(=O)Nc1ccc(Oc2ccnc3ccc(OC)nc23)c(F)c1 [Compound 189, N-[3-Fluoro-4-[(6-methoxy-1,5-naphthyridin-4-yl)oxy]phenyl]-5-(4-fluorophenyl)-4-hydroxy-2-(methoxymethyl)-6-methylpyridine-3-carboxamide] | < 100 | < 100 | < 100

The next lines start with the values.

IC50 [1] [nM] | IC50 [2] [nM] | IC50 [3] [nM] | SMILES
< 100 | < 100 | < 100 | COc1cnc2c(Oc3ccc(NC(=O)c4nnc(C)c(-c5ccc(F)cc5C)c4O)cc3F)ccnc2c1 (single isomer, unassigned) [Compound 249B, N-[3-Fluoro-4-[(7-methoxy-1,5-naphthyridin-4-yl)oxy]phenyl]-5-(4-fluoro-2-methylphenyl)-4-hydroxy-6-methylpyridazine-3-carboxamide]
< 100 | < 100 | < 100 | COc1cnc2c(Oc3ccc(NC(=O)c4nnc(C)c(-c5ccc(F)cc5C)c4O)cc3F)ccnc2c1 (single isomer, unassigned) [Compound 249C, N-[3-Fluoro-4-[(7-methoxy-1,5-naphthyridin-4-yl)oxy]phenyl]-5-(4-fluoro-2-methylphenyl)-4-hydroxy-6-methylpyridazine-3-carboxamide]
< 100 | < 100 | < 100 | COc1cc2nccc(Oc3ccc(NC(=O)c4cn(C(C)C)c(C)c(-c5cccc(F)c5)c4=O)cc3F)c2nc1OC [Compound 30, N-[4-[(6,7-Dimethoxy-1,5-naphthyridin-4-yl)oxy]-3-fluorophenyl]-5-(3-fluorophenyl)-6-methyl-4-oxo-1-propan-2-ylpyridine-3-carboxamide hydrochloride]
< 100 | < 100 | 100 to 300 | COc1ccc(-c2c(C)n(C(C)C)cc(C(=O)Nc3ccc(Oc4ccnc5cc(OC)c(OC)nc45)c(F)c3)c2=O)cc1 [Compound 31, N-[4-[(6,7-dimethoxy-1,5-naphthyridin-4-yl)oxy]-3-fluorophenyl]-5-(4-methoxyphenyl)-6-methyl-4-oxo-1-propan-2-ylpyridine-3-carboxamide hydrochloride]
< 100 | < 100 | < 100 | COc1cc2nccc(Oc3ccc(NC(=O)c4cn(C(C)C)c(C)c(-c5ccc(F)cc5C)c4=O)cc3F)c2nc1OC [Compound 32, N-[4-[(6,7-Dimethoxy-1,5-naphthyridin-4-yl)oxy]-3-fluorophenyl]-5-(4-fluoro-2-methylphenyl)-6-methyl-4-oxo-1-propan-2-ylpyridine-3-carboxamide hydrochloride]
< 100 | < 100 | < 100 | COc1cc2nccc(Oc3ccc(NC(=O)c4cn(C)cc(-c5ccccc5)c4=O)cc3F)c2nc1OC [Compound 33, N-[4-[(6,7-Dimethoxy-1,5-naphthyridin-4-yl)oxy]-3-fluorophenyl]-1-methyl-4-oxo-5-phenylpyridine-3-carboxamide hydrochloride]
< 100 | < 100 | < 100 | COc1cc2nccc(Oc3ccc(NC(=O)c4cn(C)cc(-c5cccc(F)c5)c4=O)cc3F)c2nc1OC [Compound 35, N-[4-[(6,7-Dimethoxy-1,5-naphthyridin-4-yl)oxy]-3-fluorophenyl]-5-(3-fluorophenyl)-1-methyl-4-oxopyridine-3-carboxamide hydrochloride]
< 100 | < 100 | < 100 | COc1cc2nccc(Oc3ccc(NC(=O)c4cn(C)c(C)c(-c5ccccc5)c4=O)cc3F)c2nc1OC [Compound 36, N-[4-[(6,7-Dimethoxy-1,5-naphthyridin-4-yl)oxy]-3-fluorophenyl]-1,6-dimethyl-4-oxo-5-phenylpyridine-3-carboxamide hydrochloride]
< 100 | < 100 | < 100 | COc1cc2nccc(Oc3ccc(NC(=O)c4cn(C)c(C)c(-c5cccc(F)c5)c4=O)cc3F)c2nc1OC [Compound 37, N-[4-[(6,7-Dimethoxy-1,5-naphthyridin-4-yl)oxy]-3-fluorophenyl]-5-(3-fluorophenyl)-1,6-dimethyl-4-oxopyridine-3-carboxamide hydrochloride]
< 100 | < 100 | < 100 | COc1cnc2c(Oc3ccc(NC(=O)c4cnc(C)c(-c5ccc(F)cc5C)c4O)cc3)ccnc2c1 [Compound 176, 5-(4-Fluoro-2-methylphenyl)-4-hydroxy-N-[4-[(7-methoxy-1,5-naphthyridin-4-yl)oxy]phenyl]-6-methylpyridine-3-carboxamide]
